Like-named read-outs stand apart in the source and are kept apart here.
What was measured:
[1] = tested on: MDA-MB-231 (breast); test: Proliferation EC50 on SISgel vs monolayer; assay type: cell-based; conditions: n = 6-8
[2] = tested on: 4T1 stem cells (CD44v3highALDH1high 4T1 cells); test: Tumor cell growth inhibition of sphere-derived cancer stem cells (CellTiter-Glo); assay type: cell-based, mouse; conditions: for Fold change: stem cell EC50 vs parental EC50
Procedure: Sphere formation to further increase the fraction of cancer stem cells was induced by suspending CD44v3highALDH1high 4T1 cells in 1:1 Matrigel/basal medium in a total of volume of 100 μl. Samples (5 × 10^4 cells) were then plated around the rims of wells in a 12-well plate and allowed to solidify at 37 °C for 10 min before 1 ml basal medium (with B27 plus 20 ng/mL EGF, 10 ng/mL FGF and 4 μg/mL insulin) was added. Medium was replenished every 3-days. Ten days after plating, spheres (tight, spherical, nonadherent masses >40 μm in diameter) per well were counted, and at least 100 spheres per group were measured. The number of spheres containing CD44v3highALDH1high 4T1 cells in each well and expressed as sphere forming units (SFU) as described previously. The number of SFUs per well was counted in triplicate wells for each condition.
To recover CD44v3highALDH1high 4T1 cells from the spheres, Matrigel–containing wells were treated with 1 mg/ml Dispase solution (Gibco). Spheres were then digested with trypsin and 0.05 % EDTA. CD44v3highALDH1high cells dissociated from spheres were counted by hemacytometer and replated to generate spheres of next generation. Serial passage of individual spheres was regularly performed in order to verify self-renewal capability of cells associated the spheres. Measurement of growth for CD44v3highALDH1high cells (dissociated from spheres) was also performed by incubating these cells in serum-free RPMI-1640 medium for 3-weeks using MTT-based growth assay as described previously.
To analyze tumor cell growth properties, sphere-derived CD44v3highALDH1high 4T1 cells were incubated in basal medium (with B27 plus 20 ng/mL EGF, 10 ng/mL FGF and 4 μg/mL insulin). Medium was replenished every 3-days. Twenty-one days after plating, the number of cell growth was then counted under a microscope at low magnification. In some cases, these sphere-derived CD44v3highALDH1high 4T1 cells were also treated with DT compounds for 5 days or doxorubicin (range 1 μM to 1 mM) for 5 days at 37 °C. The CellTiter-Glo® Luminescent Cell Viability Assay (Promega, Madison, WI) was utilized to determine the number of metabolically active cells based on the quantification of adenosine triphosphate (ATP). The percentage of […] relative to untreated controls was plotted as a linear function of drug concentration. The 50 % inhibitory concentration (IC50) was identified as the concentration of drug required to achieve a 50 % growth inhibition relative to untreated controls.
A stem cell–enriched cell population was prepared as described previously by sorting for ALDH1 and CD44v3. The identification of aldehyde dehydrogenase1 (ALDH1) activity from tumor–derived 4T1 Luc2-GFP cells (PerkinElmer, Waltham, MA) was conducted using the ALDEFLUOR kit (StemCell Technologies, Durham, NC). Specifically, tumor cells were suspended in ALDEFLUOR assay buffer containing ALDH1 substrate (BAAA, […] per 1 × 10^6 cells) and incubated for 30 min at 37 °C. As a negative control, 4T1 cells were treated with a specific ALDH1 inhibitor, […] diethylaminobenzaldehyde (DEAB). Next, for labeling cell surface marker, tumor–derived 4T1 cells were suspended in 100 μl ALDEFLUOR buffer followed by incubating with 20 μl allophycocyanin (APC)-labeled anti-CD44v3 antibody (recognizing the v3-specific domain of CD44) or APC-labeled normal mouse IgG (as a control) (BD Bioscience, San Jose, CA) for 15 min at 4 °C. For FACS sorting, tumor cells were incubated in PBS buffer followed by FACS (BD FACS Aria llu, BD Bioscience, San Jose, CA) sorting using dual-wavelength analysis as described previously. The parental cell line contained 2 % CD44v3highALDH1high cells but the final sorted cells contained 18 % CD44v3highALDH1high cells, a 9-fold enrichment.

[3] = tested on: cancer cells on SISgel or plastic; test: Activity of leads and analogs on cancer cells grown on plastic vs SISgel (cell line not stated); assay type: cell-based; conditions: for Hit: YES/NO; for SR: ratio IC50-p/IC50-S
Outline: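 Cells on SISgel (30,000/well, 48 h attachment) or plastic (3,000/well, 24 h) were exposed to compound (diluted to 100 μM) for 48 h in high-glucose DMEM with 10 % FCS. Cell number quantified by CFDA-AM esterase assay; results given as plastic:SISgel cell-count ratio, hits confirmed in triplicate, curves fitted sigmoidally.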

[4] = tested on: mice; test: Toxicity / maximum tolerated dose in mice; conditions: for NOAEL dose, osmotic pump: Alzet #2004 osmotic pump, 4 weeks; for MTD / toxicity in mice: mice
[5] = suspension culture, 5 days, read-out: EC50 4T1 stem cells in suspension culture
[6] = cells on SISgel, read-out: IC50-S
[7] = cells on plastic, read-out: IC50-p

For COc1cccc2c1C(=O)c1c(O)c3c(c(O)c1C2=O)C[C@@](O)(C(=O)CO)C[C@@H]3O[C@H]1C[C@H](N)[C@H](O)[C@H](C)O1 [Doxorubicin, reference compound], the EC50 ([1]; Homo sapiens, MDA-MB-231 monolayer, read-out: EC50 Monolayer) was 45.4 ± 1.9 µM, the EC50 ([1]; Homo sapiens, MDA-MB-231 on SISgel, read-out: EC50 SISgel) was 47.8 ± 4 µM and the EC50 ([2]; Mus musculus, 4T1, 120 h, suspension culture, 5 days, read-out: EC50 4T1 stem cells in suspension culture) was 630 µM. The Fold change [2] was 134.0.
For O=S(=O)([O-])c1ccc2c(N=Nc3cccc4ccccc34)c(O)c(S(=O)(=O)[O-])cc2c1.[Na+].[Na+] [DT310, 4-(1-naphthalenylhydrazinylidene) -3-oxonaphthalene-2,7-disulfonic acid], the Fold change [2] was 9.8, the EC50 [2, 5] was 141 µM and the Hit [3] was “YES”. The IC50 [3, 6] was 36 µM, the IC50 [3, 7] was 87 µM and the SR [3] was 2.4. For the same compound, the “NOAEL dose, osmotic pump” value [4] was 23.4 µg/h, the MTD [4] was 65 mg/kg and the “toxicity in mice” value [4] was “very low toxicity”.
O=S(=O)([O-])c1cc(O)c2c(O)c(N=Nc3cccc4ccccc34)c(S(=O)(=O)[O-])cc2c1.[Na+].[Na+] [DT320, 4,5-Dihydroxy-3-(1-naphthalenylazo)-2,7-naphthalenedisulfonic acid disodium salt] was tested, and the EC50 ([1]; MDA-MB-231 monolayer, read-out: EC50 Monolayer) was 78.1 ± 7.1 µM, the EC50 ([1]; MDA-MB-231 on SISgel, read-out: EC50 SISgel) was 8.7 ± 1.1 µM and the EC50 ([2]; grown on SISgel, read-out: EC50 4T1 stem cells grown on SISgel) was 71 µM. The Fold change [2] was 2.5, the EC50 [2, 5] was 50 µM and the Hit [3] was “YES”. The IC50 [3, 6] was 9 µM, the IC50 [3, 7] was 78 µM and the SR [3] was 9.0. For the same compound, the “NOAEL dose, osmotic pump” value [4] was 26.7 µg/h, the MTD [4] was 75 mg/kg and the “toxicity in mice” value [4] was “very low toxicity”.

From paper PMC4434572, “Identification of novel drugs to target dormant micrometastases” (BMC Cancer, 2015)
